A short description of one data set: LD50 mice. The following applies: mouse, in vivo.
The nature of a further data set: LD50 rats. The class given is in vivo. The following applies: rat, in vivo.
Data set [1] relates to rats. Description: LD50 rats. The following applies: oral. The class given is in vivo.
Data set [2] relates to adult rats. Description: anti-inflammatory action, carragenin oedema test in rats. Type of data set: in vivo. The following applies: for ED50: Rattus norvegicus, read-out: anti-inflammatory action rats ED50, carrageenin oedema. The source says: (§1) The anti-inflammatory action has been studied in adult rats by using the carragenin oedema test (Proc. Soc. exp. Biol. Med. 1962, 111 : 544) and the granuloma from an extraneous substance (J. Amer. Pharm. Ass., Sci. Ed. 1957, 46 : 515).
(§2) Whenever possible the ED50 values have been calculated.
For orientation: Carrageenan injected into the paw causes an acute inflammation.

Data set [3] relates to adult rats. Description: anti-inflammatory action, granuloma from an extraneous substance in rats. The class given is in vivo. The following applies: Rattus norvegicus, 168 h; oral × 7 days.
Description: as §1, §2

Data set [4] has as its system rats. Description: antipyretic action in rats. The class given is in vivo. The following applies: oral.
Description: (§3) The analgesic action has been assessed in rats (Arch. int. Pharmacodyn. 1957, 111 : 409) and in mice (Boll. Chim. Farm. 1968, 107 : 29), the antipyretic action in rats (J. Pharmacol. exp. Ther. 1963, 141 : 369); and the anti-cough action in guinea pigs made to inhale 4% ammonia.
as §2

A further data set has as its system guinea pigs. Briefly: anti-cough action in guinea pigs made to inhale 4% ammonia. The following applies: intraperitoneal. Type of data set: in vivo.
Description: as §3, §2

For data set [5], the system named is rats. Briefly: analgesic action, Randall Selitto, rats. Type of data set: in vivo. The following applies: oral; for ED50: Rattus norvegicus.
Description: as §3, §2

For data set [6], the system named is mice. Description: analgesic action, stretching acetic acid, mice. Type of data set: in vivo. The following applies: oral; for ED50: Mus musculus.
Description: as §3, §2

Data set [7] concerns mice. Briefly: analgesic action, tail clip, mice. The class given is in vivo. The following applies: oral.
Description: as §3, §2

In data set [8] the test system is rats. Description: anti-ulcer action in rats kept without food for 24 hours and motionless for 4 hours. The class given is in vivo. The following applies: 10 mg/kg intraperitoneal. The method, then: The anti-ulcer property has been studied in rats kept without food for 24 hours and motionless for 4 hours (Therapie 1960, 15 : 1096).
Where [9] appears, read: intraperitoneal, 200 mg/kg maximum dose.

We go through six molecules from US3933838A, “5-Substituted 2-amino-4-arylthiazoles” (Instituto Luso Farmaco d'Italia S.r.l., priority 1972, dated 1976).

Molecules are shown by their SMILES.

As usually defined, the LD50 is the dose at which mortality reaches 50%. Lower therefore signals greater toxicity. What is called ED50 is the midpoint of the dose-response relation. `O=C(O)Cc1sc(Nc2ccccc2)nc1-c1ccc(Cl)cc1` [LR 330, (2-phenylamino-4-p-chlorophenyl-thiazol-5-yl)-acetic acid]: the 50% lethal dose (LD50) in the data set “LD50 mice” (ip, intraperitoneal) was greater than 1000 mg/kg; in the data set “LD50 mice” (oral) it was greater than 3000 mg/kg; in “LD50 rats” (ip, intraperitoneal) it was greater than 1000 mg/kg; in the data set “LD50 rats” (po) it was greater than 2000 mg/kg; in the data set on rats [1], greater than 3000 mg/kg. The ED50 was 75 mg/kg in the data set on adult rats [2] (ip, intraperitoneal); 400 mg/kg with adult rats [2] (oral); 400 mg/kg in the data set on adult rats [3]; 200 mg/kg in the data set with rats [5]; 75 mg/kg in the data set on mice [6]. Moreover, the “anti-pyretic action, effect at maximum dose administered” value (“anti-pyretic action, effect” below) with rats [4] (200 mg/kg maximum dose) is “.phi”. In the data set on guinea pigs (200 mg/kg maximum dose), the “anti-coughing action, effect at maximum dose administered” value (“anti-coughing action, effect” for short) is on record as “.phi”. Moreover, the “tail clip, effect at maximum dose administered” value (“tail clip, effect” for short) in the data set with mice [7] (200 mg/kg maximum dose) was “.phi”.

Take `Nc1nc(-c2ccc(Cl)cc2)c(CC(=O)O)s1` [LR 331, (2-amino-4-p-chlorophenyl-thiazol-5-yl)-acetic acid]: the LD50 was 800 mg/kg in “LD50 mice” (ip, intraperitoneal); greater than 5000 mg/kg in “LD50 mice” (oral); 840 mg/kg in “LD50 rats” (ip, intraperitoneal); greater than 1000 mg/kg in “LD50 rats” (po). Besides, the ED50 worked out at 140 mg/kg in the data set with adult rats [2] (ip, intraperitoneal); 300 mg/kg with adult rats [2] (oral); 300 mg/kg with adult rats [3]; 132 mg/kg in the data set with mice [6]. Moreover, in the data set on rats [4] (400 mg/kg maximum dose), the “anti-pyretic action, effect” value was “.phi”. The “anti-coughing action, effect” value with guinea pigs (50 mg/kg maximum dose) is 17%. Besides, the “Randall Selitto, effect at maximum dose administered” value in the data set with rats [5] (175 mg/kg maximum dose) amounted to 15%. Moreover, in the data set on mice [7] (175 mg/kg maximum dose), the “tail clip, effect” value is listed as “.phi”. Also, the “anti-ulcer action, protected rats in %” value with rats [8] was determined as 30%. The “anti-ulcer action, reduction in number of ulcers in %” value (from here on “anti-ulcer action, reduction … in %”) in the data set with rats [8] worked out at 52%.

For the molecule `O=C(O)Cc1sc(NC(=O)Nc2ccccc2)nc1-c1ccc(Cl)cc1` [LR 364, [2-(phenylamino-carbonylamino)-4-p-chlorophenyl-thiazol-5-yl]-acetic acid], in the data set “LD50 mice” (ip, intraperitoneal), the median lethal dose (LD50) was greater than 1000 mg/kg. Also, the “carrageenin oedema, effect at maximum dose administered” value (from here on “carrageenin oedema, effect”) in the data set with adult rats [2] (setting [9]) was “.phi”. In the data set with guinea pigs (200 mg/kg maximum dose), the “anti-coughing action, effect” value is on record as “.phi”. Further, in the data set on mice [6] (200 mg/kg maximum dose), the “stretching acetic acid, effect at maximum dose administered” value (“stretching acetic acid, effect” for short) was determined as 31%. Besides, in the data set with mice [7] (200 mg/kg maximum dose), the “tail clip, effect” value is on record as “.phi”. Moreover, in the data set on rats [8], the “anti-ulcer action, protected rats in %” value is recorded as 30% and the “anti-ulcer action, reduction … in %” value is recorded as 59%.

For `O=C(O)Cc1sc(Nc2c(Cl)cccc2Cl)nc1-c1ccccc1` [LR 396, [2-n-(2', 6'-dichlorophenyl)-amino-4-phenyl-thiazol-5-yl]-acetic acid], the 50% lethal dose (LD50) in the data set “LD50 mice” (ip, intraperitoneal) was greater than 1000 mg/kg. Moreover, the “carrageenin oedema, effect” value in the data set with adult rats [2] (setting [9]) is reported as “.phi”. In addition, the “stretching acetic acid, effect” value with mice [6] (100 mg/kg maximum dose) is reported as 26%. Further, in the data set on rats [8], the “anti-ulcer action, protected rats in %” value came out at 40% and the “anti-ulcer action, reduction … in %” value is reported as 45%.

As for `CCN(CC)c1nc(-c2ccc(Cl)cc2)c(CC(=O)O)s1` [LR 407, (2-n,n-diethylamino-4-p-chlorophenyl-thiazol-5-yl)-acetic acid], the LD50 in the data set “LD50 mice” (ip, intraperitoneal) was 400 mg/kg; in “LD50 mice” (oral) it was 1260 mg/kg; in “LD50 rats” (ip, intraperitoneal), 385 mg/kg; in the data set “LD50 rats” (po) it was greater than 1500 mg/kg. Moreover, the ED50 is 60 mg/kg in the data set on adult rats [2] (ip, intraperitoneal); 120 mg/kg with adult rats [2] (oral); 170 mg/kg in the data set with adult rats [3]; 73 mg/kg in the data set with rats [4] (Rattus norvegicus, read-out: anti-pyretic action rats ED50); 34 mg/kg with guinea pigs (Cavia porcellus, ip, read-out: anti-coughing action guinea pigs ED50); greater than 400 mg/kg with rats [5]. The 50% effective dose (ED50) was determined as 26 mg/kg with mice [6] and 48 mg/kg with mice [7] (Mus musculus). Besides, the “anti-ulcer action, reduction … in %” value in the data set on rats [8] is on record as 23%.

Consider `CCN(CC)CCNC(=O)Cc1sc(N)nc1-c1ccc(Cl)cc1` [LR 450, (2-amino-4-p-chlorophenyl-thiazol-5-yl)-N-(N',N' diethylaminoethyl)-acetamide], for which the LD50 came out at 43 mg/kg in “LD50 mice” (ip, intraperitoneal); 238 mg/kg in “LD50 mice” (oral); 47 mg/kg in the data set “LD50 rats” (ip, intraperitoneal); 915 mg/kg in “LD50 rats” (po). Also, the “carrageenin oedema, effect” value with adult rats [2] (intraperitoneal, 6 mg/kg maximum dose) was determined as 36%; in the data set with adult rats [2] (oral, 100 mg/kg maximum dose), 35%. In the data set on adult rats [3], this molecule displayed an ED50 of 100 mg/kg. Further, in the data set with rats [4] (100 mg/kg maximum dose), the “anti-pyretic action, effect” value is 38%. Besides, in the data set on guinea pigs (12 mg/kg maximum dose), the “anti-coughing action, effect” value was “.phi”. Besides, the “Randall Selitto, effect at maximum dose administered” value in the data set on rats [5] (100 mg/kg maximum dose) is recorded as 18%. In addition, in the data set on mice [6] (100 mg/kg maximum dose), the “stretching acetic acid, effect” value worked out at 27%. The “tail clip, effect” value in the data set with mice [7] (50 mg/kg maximum dose) is listed as “.phi”. For the same molecule, the “anti-ulcer action, protected rats in %” value in the data set with rats [8] is recorded as 65%. In addition, the “anti-ulcer action, reduction … in %” value in the data set with rats [8] is reported as 69%.
